Experimental data: patent US20050277664A1, “Monoamine neurotransmitter re-uptake inhibitor for the inhibition of beta-amyloid generation” (Boehringer Ingelheim International GmbH, priority 2004, published 2005)
Where two headings read alike, the source gives them in different places.

Columns and labels:
[1] = test system: Aβ42 secretion by U373 astrocytoma cells expressing human wtAPP695; assay: Aβ secretion assay, Aβ42 (sandwich ELISA of cell supernatant); format: cell-based; conditions: for inhibition at 1.56 µM / inhibition at 3.12 µM / inhibition at 6.25 µM / inhibition at 12.5 µM / inhibition at 25 µM / inhibition at 50 µM: Homo sapiens, U373 MG, 17 h, read-out: Aβ42 Secretion, inhibition (−) or stimulation (+); for generation/secretion of Aβ42 (result in words): dose response
Method: (§1) Cell culture and drug treatment: U373 astrocytoma cells expressing human wtAPP695 were used to test the compound of formula IA for Aβ lowering potential. Cells were cultured in 96 well plates in DMEM medium, additionally supplemented with 10% FCS and 1% glutamine, until they have grown to a confluent cell layer. The cells were then incubated for 17 hours in the presence of the compound of formula IA in DMEM medium. Afterwards, 100 μl of the supernatant had been removed and measured with the ELISA as described below to determine the Aβ42 peptide concentrations. The cells were washed, incubated again for 4 hours with the compound, before measuring the Aβ40 levels. AlamarBlue assays (Serotec, Oxford, UK) were conducted to determine cytotoxicity.
(§2) Monoclonal 6E10 against Aβ1-17 (Signet Laboratories, Inc., Dedham, Mass., USA) was used to capture Aβ40; SGY 3160 against Aβ1-16 (Mayo Medical Ventures, Rochester, Minn., USA) to capture Aβ42. Both antibodies were diluted in PBS at a concentration of 8 μg/ml to coat a 96 well plate. Blocking was completed with 1% Block ACE (blocking reagent) (Dainippon Seiyaku, Asaka, Japan) in PBS for 2 hrs. The plates were then washed with PBST and the cell supernatants, diluted 1:1.5 in EC buffer (0.1 M NaH2PO4, 0.1 M Na2HPO4, 2 mM EDTA, 0.4 M NaCl, 0.2% BSA, 0.05% CHAPS, 0.4% Block ACE, 0.05% NaN3 pH 7.0) have been added into the wells, before the plates were stored at 4° C. over night. Detector antibodies (alkaline phosphatase-coupled ROβ40 and ROβ42 against Aβ40 and Aβ42, respectively), were loaded onto the wells at 0.1 μg/ml in ACE Block for 2 hrs. The reporter system used was the Tropix ELISA-Light chemiluminescent detection system (Applied Biosystems (Tropix), Bedford, Mass., USA).
(§3) The compound of formula IA has been tested in an Aβ secretion assay. In this particular in vitro assay, the astrocytoma cell line U373 that stably over-expresses wild-type human amyloid precursor protein (APP) has been exposed to this compound. APP is proteolytically cleaved by 2 enzymes, BACE and γ secretase, to generate the Aβ peptides. Because of a flexible APP cleavage site of γ secretase, several Aβ isoforms are generated, majorly Aβ40 and Aβ42. The rate of Aβ generation/secretion into the medium in the presence or absence of the compound of formula IA in different concentrations has been measured by ELISA (Table 1). The % inhibition (−) or stimulation (+) has been determined in 2 independent experiments.

[2] = test system: Aβ40 secretion by U373 astrocytoma cells expressing human wtAPP695; assay: Aβ secretion assay, Aβ40 (sandwich ELISA of cell supernatant); format: cell-based; conditions: for inhibition at 1.56 µM / inhibition at 3.12 µM / inhibition at 6.25 µM / inhibition at 12.5 µM / inhibition at 25 µM / inhibition at 50 µM: Homo sapiens, U373 MG, 4 h, read-out: Aβ40 Secretion, inhibition (−) or stimulation (+); for generation/secretion of Aβ40 (result in words): dose response
Method: as §1, §2, §3

[3] = test system: cerebral Aβ40 levels in APPtg mice; assay: Cerebral Aβ40 levels in APPtg mice after oral treatment; format: in vivo; conditions: for Level of Aβ40, reduction (−) and/or stimulation (+) of cerebral Aβ levels: per os
Method: (§4) APPtg mice at 3 to 4 months of age were used. A compound of formula (IA) was prepared and administered in a suspension of 0.5% Tylose solution.
(§5) Controls were treated with Tylose only. Each group consisted of 12 or 13 mice with equal numbers of each sex. In the short term study, the animals were treated for the time period of 2.5 days. Twice a day, a dose of 3 mg/kg was applied with interruption times of 11.5-12.5 hours. On the last day (day of sacrifice), one dose of 3 mg/kg was administered and the mice were sacrificed 5.5 hours later. […] In a second long term four weeks study, 3 mg/kg/day of compound of formula IA were administered, subdivided into two subdoses, with an interruption time of 10-12 hours during the day. Each version of the in vivo experiments has been performed once.
(§6) The murine brains were rapidly removed from the skull and divided along the medial fissure. The cerebellum was removed before each half was quickly frozen down on a metal plate that had been cooled down on dry ice. Brains were placed in Eppendorf tubes, frozen in liquid nitrogen, and stored at −80° C. until needed for Aβ extractions or compound measurements.
(§7) Brains were thawed on ice. Mouse hemibrains were extracted in a homogenisation buffer consisting of 20 mM Tris (pH 8.5), 0.2% Triton X-100, and complete proteinase inhibitor with EDTA (Roche Diagnostics GmbH, Mannheim, Germany). The brains were homogenized in a volume […] 5 times the weight of the brain (mg) using a 2 ml Douncer Homogenator (B. Braun, Melsungen, Germany). This was carried out 12 times with a Stempel L, followed by a Stempel S. The homogenates were then ultracentrifuged in Ultracentrifuge tubes (Beckman, CA, USA) at 200.000 g (UZ Sorvall RC 120 GX, KENDRO Laboratories Products GmbH, Hanau, Germany) at 4° C. for 1 hour. The post nuclear supernatants containing the soluble Aβ were collected and measured in a Sandwich ELISA (s.a.).
(§8) Statistical analyses of data was done by one-sided t tests for differences between treatment and control group to determine the p values.

[4] = test system: cerebral Aβ42 levels in APPtg mice; assay: Cerebral Aβ42 levels in APPtg mice after oral treatment; format: in vivo; conditions: for Level of Aβ42, reduction (−) and/or stimulation (+) of cerebral Aβ levels: per os
Method: as §4, §5, §6, §7, §8

[5] = Exp. 1, further 4 hours incubation
[6] = Exp. 2, further 4 hours incubation

CCOC[C@H]1C2CCC(C[C@@H]1c1ccc(Cl)c(Cl)c1)N2C (some centres unmarked) [Formula IA]
inhibition at 1.56 µM ([1]; Exp. 1, 17 hours incubation): 3.5%
inhibition at 1.56 µM ([1]; Exp. 2, 17 hours incubation): -4.5%
inhibition at 3.12 µM ([1]; Exp. 1, 17 hours incubation): 6.5%
inhibition at 3.12 µM ([1]; Exp. 2, 17 hours incubation): -16.1%
inhibition at 6.25 µM ([1]; Exp. 1, 17 hours incubation): 4.1%
inhibition at 6.25 µM ([1]; Exp. 2, 17 hours incubation): 12.1%
inhibition at 12.5 µM ([1]; Exp. 1, 17 hours incubation): 17.8%
inhibition at 12.5 µM ([1]; Exp. 2, 17 hours incubation): 23.2%
inhibition at 25 µM ([1]; Exp. 1, 17 hours incubation): 24.5%
inhibition at 25 µM ([1]; Exp. 2, 17 hours incubation): 48.9%
inhibition at 50 µM ([1]; Exp. 1, 17 hours incubation): 26.6%
inhibition at 50 µM ([1]; Exp. 2, 17 hours incubation): 62.3%
generation/secretion of Aβ42 (result in words) ([1]; FIG. 2): increasing inhibition of Aβ42 with an increasing concentration
generation/secretion of Aβ42 (result in words) ([1]; FIG. 2, listed as formula 1A): inhibited
inhibition at 1.56 µM [2, 5]: 3.2%
inhibition at 1.56 µM [2, 6]: -16%
inhibition at 3.12 µM [2, 5]: 6.1%
inhibition at 3.12 µM [2, 6]: -8%
inhibition at 6.25 µM [2, 5]: 20.9%
inhibition at 6.25 µM [2, 6]: 2.8%
inhibition at 12.5 µM [2, 5]: 33.9%
inhibition at 12.5 µM [2, 6]: 24.8%
inhibition at 25 µM [2, 5]: 50.1%
inhibition at 25 µM [2, 6]: 50.3%
inhibition at 50 µM [2, 5]: 81.3%
inhibition at 50 µM [2, 6]: 88.5%
generation/secretion of Aβ40 (result in words) ([2]; FIG. 1): increasing inhibition of Aβ40 with an increasing concentration
generation/secretion of Aβ40 (result in words) ([2]; FIG. 1, listed as formula 1A): inhibited
Level of Aβ40, reduction (−) and/or stimulation (+) of cerebral Aβ levels ([3]; APPtg mice, 2 weeks, 1 × 3.0 mg/kg/day, mean ± SEM): −18.6 ± 7.1 %
Level of Aβ40, reduction (−) and/or stimulation (+) of cerebral Aβ levels ([3]; APPtg mice, 4 weeks, 2 × 1.5 mg/kg/day, mean ± two-sided confidence interval): −17.2 ± 8.7° %
Level of Aβ40, reduction (−) and/or stimulation (+) of cerebral Aβ levels ([3]; APPtg mice, 2.5 days, 2 × 3.0 mg/kg day 1, 2, 1 × 3.0 mg/kg day 3, mean ± SEM vs Tylose control): −12.4 ± 1.9 %
reduction of Aβ40 ([3]; four weeks study, 3 mg/kg/day in two subdoses, APPtg mice): 17.2%
Aβ40 levels in vivo (result in words) ([3]; in vivo test, FIG. 3 (short term experiment)): statistically significant reduction
reduction of the Aβ40 levels ([3]; short term in vivo experiment (2.5 days, 3 mg/kg twice a day), APPtg mice, p=0.0003): 12.4%
reduction of the cerebral Aβ40 levels ([3]; two weeks treatment, 3 mg/kg once a day, APPtg mice, p=0.024): 18.6%
reduction for Aβ42 ([4]; four weeks study, 3 mg/kg/day in two subdoses): 27.4%
Level of Aβ42, reduction (−) and/or stimulation (+) of cerebral Aβ levels ([4]; 2 weeks, 1 × 3.0 mg/kg/day, mean ± SEM): −16.3 ± 3.7 %
Level of Aβ42, reduction (−) and/or stimulation (+) of cerebral Aβ levels ([4]; 4 weeks, 2 × 1.5 mg/kg/day, mean ± two-sided confidence interval): −27.4 ± 27.2° %
Level of Aβ42, reduction (−) and/or stimulation (+) of cerebral Aβ levels ([4]; 2.5 days, 2 × 3.0 mg/kg day 1, 2, 1 × 3.0 mg/kg day 3, mean ± SEM vs Tylose control): +5.1 ± 3.0%
increase of Aβ42 levels ([4]; short term in vivo experiment (2.5 days, 3 mg/kg twice a day), p=0.9136): 5.1%
reduction of the cerebral Aβ42 levels ([4]; two weeks treatment, 3 mg/kg once a day, p=0.0096): 16.3%
